Measurements taken from US8476197B2, “Aminopropenoates as fungicides” (priority 2009, dated 2013).
Where two headings read alike, the source gives them in different places. Marks after values point to notes of the source that are not given here.

SMILES | Log P (pH 7.5) | Log P (pH 2.7)
CC(NC(=C(C#N)C(=O)OC(C)C(F)(F)F)c1cccnc1Cl)c1nccs1 (mixture of isomers) [Compound 56] | 2.94 | –
CCOC(=O)C(C#N)=C(NC(C)C1CCCO1)c1sccc1C(F)(F)F (mixture of isomers) [Compound 172] | – | 3.55^[a]
COC(=O)C(C#N)=C(NC(C)C1CCCO1)c1sc(C)nc1C(F)(F)F (mixture of isomers) [Compound 178] | – | 1.97^[a]
CCOC(=O)C(C#N)=C(NC(C)C1CCCO1)c1sccc1Br (mixture of isomers) [Compound 186] | – | 3.35^[a]
CCOC(=O)C(C#N)=C(NC(C)c1ccc(Cl)s1)c1cccnc1Cl (mixture of isomers) [Compound 281] | – | 3.8^[a]
CCOC(=O)C(C#N)=C(NC(C)c1nc(C(C)C)no1)c1cccnc1Cl (mixture of isomers) [Compound 282] | – | 3.2^[a]
CCOC(=O)C(C#N)=C(NC(C)CN1CCCC1)c1cccnc1Cl (mixture of isomers) [Compound 283] | – | 3.35^[a]
CCOC(=O)C(C#N)=C(NC(C)c1ccc(C(F)(F)F)cn1)c1cccnc1Cl (mixture of isomers) [Compound 285] | – | 3.5^[a]
CCOC(=O)C(C#N)=C(NC(C)c1ncc(Br)cc1Cl)c1cccnc1Cl (mixture of isomers) [Compound 287] | – | 3.9^[a]
CCOC(=O)C(C#N)=C(NC(C)c1ncc(C(F)(F)F)cc1Cl)c1cccnc1Cl (mixture of isomers) [Compound 288] | – | 3.9^[a]
CCOC(=O)C(C#N)=C(NC(C)c1ccccn1)c1ccnc(Cl)c1Cl (mixture of isomers) [Compound 289] | – | 3.04^[a]
CCOC(=O)C(C#N)=C(NC(C)c1cscn1)c1ccnc(Cl)c1Cl (mixture of isomers) [Compound 290] | – | 2.92^[a]
CCOC(=O)C(C#N)=C(NC(C)c1nccs1)c1ccnc(Cl)c1Cl (mixture of isomers) [Compound 291] | – | 2.96^[a]
CCOC(=O)C(C#N)=C(NC(C)c1ccccn1)c1cccnc1Cl (mixture of isomers) [Compound 292] | – | 2.5^[a]
CCOC(=O)C(C#N)=C(NC(C)Cc1nccs1)c1cccnc1Cl (mixture of isomers) [Compound 294] | – | 2.4^[a]
CCOC(=O)C(C#N)=C(NC(C)Cc1ccccn1)c1cccnc1Cl (mixture of isomers) [Compound 295] | – | 1.82^[a]
CCOC(=O)C(C#N)=C(NC(C)Cc1cccnc1)c1cccnc1Cl (mixture of isomers) [Compound 296] | – | 1.57^[a]
CCOC(=O)C(C#N)=C(NC(C)c1nccs1)c1ccncc1Br (mixture of isomers) [Compound 297] | – | 2.4^[a]
CCOC(=O)C(C#N)=C(NC(C)c1cscn1)c1ccncc1Br (mixture of isomers) [Compound 298] | – | 2.4^[a]
CCOC(=O)C(C#N)=C(NC(C)c1ccccn1)c1ccncc1Br (mixture of isomers) [Compound 299] | – | 2.5^[a]
CCOC(=O)C(C#N)=C(NC(C)c1ccccn1)c1ccncc1F (mixture of isomers) [Compound 300] | – | 2.28^[a]
CCOC(=O)C(C#N)=C(NC(C)c1cscn1)c1ccncc1F (mixture of isomers) [Compound 301] | – | 2.22^[a]
CCOC(=O)C(C#N)=C(NC(C)Cc1nccs1)c1ccncc1F (mixture of isomers) [Compound 302] | – | 2.19^[a]
CCOC(=O)C(C#N)=C(NC(C)c1cscn1)c1ccncc1C(F)(F)F (mixture of isomers) [Compound 303] | – | 2.6^[a]

SMILES | Log P (pH 7.5) | Log P (pH 2.7)
CCOC(=O)C(C#N)=C(NC(C)c1nc(C(=O)N(C)C)cs1)c1cccnc1Cl (mixture of isomers) [Compound 304] | 2.08 | –
C=CCOC(=O)C(C#N)=C(NC(C)c1nccs1)c1cn(C)nc1C(F)F (mixture of isomers) [Compound 305] | – | 2.59^[a]
C=CCOC(=O)C(C#N)=C(NC(C)c1ccccn1)c1cn(C)nc1C(F)F (mixture of isomers) [Compound 307] | – | 2.56^[a]
CCOC(=O)C(C#N)=C(NC(C)c1nccs1)c1c(C(F)(F)F)nn(C)c1F (mixture of isomers) [Compound 308] | – | 3.09^[a]
CCOC(=O)C(C#N)=C(NC(C)c1nccs1)c1c(C(F)F)nn(C)c1F (mixture of isomers) [Compound 309] | – | 2.73^[a]
CCOC(=O)C(C#N)=C(NC(C)c1ccccn1)c1c(C(F)(F)F)nn(C)c1F (mixture of isomers) [Compound 310] | – | 3.12^[a]
CCOC(=O)C(C#N)=C(NC(C)CCc1c(Cl)cccc1Cl)c1cccnc1Cl (mixture of isomers) [Compound 429] | 4.62 | –
CCOC(=O)C(C#N)=C(NC(C)c1ccc(F)cc1)c1sccc1C(F)(F)F (mixture of isomers) [Compound 438] | – | 4.14^[a]
CCOC(=O)C(C#N)=C(NC(C)c1ccc(C)cc1)c1sccc1C(F)(F)F (mixture of isomers) [Compound 439] | – | 4.54^[a]
CCOC(=O)C(C#N)=C(NC(C)c1ccccc1)c1sccc1C(F)(F)F (mixture of isomers) [Compound 440] | – | 4.16^[a]
COC(=O)C(C#N)=C(NC(C)CCc1ccccc1)c1sc(C)nc1C(F)(F)F (mixture of isomers) [Compound 441] | – | 4.01^[a]
COC(=O)C(C#N)=C(NC(C)c1ccc(F)cc1)c1sc(C)nc1C(F)(F)F (mixture of isomers) [Compound 442] | – | 3.64^[a]
COC(=O)C(C#N)=C(NC(C)c1ccc(C)cc1)c1sc(C)nc1C(F)(F)F (mixture of isomers) [Compound 443] | – | 4.01^[a]
COC(=O)C(C#N)=C(NC(C)c1ccccc1)c1sc(C)nc1C(F)(F)F (mixture of isomers) [Compound 444] | – | 3.62^[a]
CCOC(=O)C(C#N)=C(NC(C)CCc1ccccc1)c1sccc1Br (mixture of isomers) [Compound 445] | – | 4.51^[a]
CCOC(=O)C(C#N)=C(NC(C)c1ccc(F)cc1)c1sccc1Br (mixture of isomers) [Compound 446] | – | 4.06^[a]
CCOC(=O)C(C#N)=C(NC(C)c1ccc(C)cc1)c1sccc1Br (mixture of isomers) [Compound 447] | – | 4.49^[a]
CCOC(=O)C(C#N)=C(NC(C)c1ccccc1)c1sccc1Br (mixture of isomers) [Compound 448] | – | 4.09^[a]
CCOC(=O)C(C#N)=C(NC(C)CCc1ccccc1)c1sc(C)nc1C(F)(F)F (mixture of isomers) [Compound 449] | – | 4.36^[a]
CCOC(=O)C(C#N)=C(NC(C)c1ccc(F)cc1)c1sc(C)nc1C(F)(F)F (mixture of isomers) [Compound 450] | – | 3.96^[a]
CCOC(=O)C(C#N)=C(NC(C)c1ccc(C)cc1)c1sc(C)nc1C(F)(F)F (mixture of isomers) [Compound 451] | – | 4.36^[a]
CCOC(=O)C(C#N)=C(NC(C)c1ccccc1)c1sc(C)nc1C(F)(F)F (mixture of isomers) [Compound 452] | – | 3.99^[a]
CCOC(=O)C(C#N)=C(NC(C)CCc1ccccc1)c1cn(C)nc1C(F)F (mixture of isomers) [Compound 453] | – | 3.62^[a]
CCOC(=O)C(C#N)=C(NC(C)c1ccc(F)cc1)c1cn(C)nc1C(F)F (mixture of isomers) [Compound 454] | – | 3.21^[a]
